Values quoted from earlier work as cited in patent publication US20130071871A1, “ENZYMATIC DETERMINATION OF LITHIUM IONS USING PHOSPHOGLUCOMUTASE” (SPECIALTY ASSAYS, INC., priority 2011, published 2013).

**Q.** For [Li] [Lithium], which highly toxic level (level chosen for the elevated lithium standard, well above the therapeutic range) is on record?
**A.** Its highly toxic level is about 3 mmol/L.

**Q.** And the “serum level too high, severe toxic side effects can occur” value (serum)?
**A.** Its value is over 1200 µM.
